Data from patent US5182258A, “Systemic delivery of polypeptides through the eye” (Orbon Corporation, priority 1989, dated 1993).

Assays:
[1] = for effect of peptidase inhibitors on systemic absorption of TRH: 4 mM, Bestatin, 60 uM, D,L-Thiorphan, 0.6 uM, ocular TRH
[2] = Absorption of insulin into systemic circulation via the eyes or i.v. (125I blood level); format: in vivo, rabbit; details: ocular insulin plus leucine-leucine
[3] = Blood enkephalin-equivalent concentration after ocular or i.v. enkephalin
[4] = Enkephalin-equivalent remaining in eye tissues at the end of 12 hr experiment

O=C(O)CNC(=O)C(CS)Cc1ccccc1 (racemic) [D,L-Thiorphan, D,L-thiorphan]
effect of peptidase inhibitors on systemic absorption of TRH ([1]; Leu-Leu): did not significantly enhance the systemic absorption of TRH

CC(C)C[C@H](NC(=O)CNC(=O)[C@H](Cc1ccc(O)cc1)NC(=O)[C@H](CO)NC(=O)[C@H](Cc1c[nH]c2ccccc12)NC(=O)[C@H](Cc1cnc[nH]1)NC(=O)[C@@H]1CCC(=O)N1)C(=O)N[C@@H](CCCNC(=N)N)C(=O)N1CCC[C@H]1C(=O)NCC(N)=O [LHRH, luteinizing hormone-releasing hormone]
eye drop concentration sufficient to reach therapeutic effective blood concentration ([1]; rabbit, in vivo): 0.005%

CC(C)C[C@H](NC(=O)[C@@H](N)CC(C)C)C(=O)O [Leu-Leu, leucine-leucine]
effect of added peptidase inhibitor on insulin absorption [2]: did not significantly improve insulin absorption | effect of peptidase inhibitors on systemic absorption of TRH ([1]; Leu-Leu): did not significantly enhance the systemic absorption of TRH | effect of peptidase inhibitor on systemic absorption of LHRH ([1]; Leu-Leu, 5 mM, ocular LHRH): did increase the systemic absorption of LHRH significantly | effect of peptidase inhibitor on systemic absorption of glucagon ([1]; Leu-Leu, 5 mM, ocular glucagon): did not increase the systemic absorption of glucagon

NC(=O)[C@@H]1CCCN1C(=O)[C@H](Cc1cnc[nH]1)NC(=O)[C@@H]1CCC(=O)N1 [TRH, Thyrotrophin-releasing hormone]
eye drop concentration giving a therapeutic blood concentration ([1]; rabbit, in vivo): ≥ 0.0025% | peak blood TRH concentration ([1]; rabbit, in vivo): 138 ng/mL | steady state blood TRH concentration after the peak ([1]; rabbit, in vivo): 60 ng/mL | time from the peak to steady state ([1]; rabbit, in vivo): 9 h | time to peak ([1]; rabbit, in vivo): 60 min

CC(C)C[C@H](NC(=O)[C@H](Cc1ccccc1)NC(=O)CNC(=O)CNC(=O)[C@@H](N)Cc1ccc(O)cc1)C(=O)O [enkephalin, Leucine-enkephalin (5-L-leucine)]
Tx of decline of blood concentration ([3]; 50 ug i.v.): less than 30 min | lowest point of blood concentration ([3]; 50 ug i.v., in 5 hrs): 22 ng/mL | plateau blood enkephalin concentration ([3]; 1% enkephalin instilled into eye): 72 ng/mL | plateau blood enkephalin concentration ([3]; 5% enkephalin instilled into eye): 233 ng/mL | actual concentration of enkephalin in the lens compared with other tissues [4]: lowest among all tissues
